Experimental data reported in PubChem BioAssay AID2060893 (Molecular Pharmacology Branch, DTP, NCI, 2025).

System: K86415-001-R-J1-PDC complex spheroids, viability
Test: Anticancer human tumor K86415-001-R-J1-PDC patient-derived lung adenocarcinoma cell line growth inhibition [RAS]
Conditions: for IC50: curve of first compound; for viability, T/C: stronger effect = lower value
Procedure, shortened: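 Agents were tested in combination matrices in half-log decrements from a top concentration at or near clinical Cmax (10 microM if undetermined). Targets were multi-cell spheroids of tumour lines plus HUVEC and MSC stromal cells.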
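Also: spheroids exposed to agents for seven days before readout.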

C=CC(=O)N1CCN(c2nc(OCC3CCCN3C)nc3c(F)c(-c4nc(N)cc(C)c4C(F)(F)F)c(Cl)cc23)C(C)C1 (configuration not stated) + CCn1c(-c2cc(N3CCN(C)CC3)cnc2C(C)OC)c2c3cc(ccc31)-c1csc(n1)CC(NC(=O)C1CC1C)C(=O)N1CCCC(N1)C(=O)OCC(C)(C)C2
IC50 (second compound 0.000949 µM): < 3.16 nM
IC50 (second compound 0.003 µM): < 3.16 nM
IC50 (second compound 0.00949 µM): < 3.16 nM
IC50 (second compound 0.03 µM): < 3.16 nM
IC50 (second compound 0.0949 µM): < 3.16 nM
IC50 (second compound 0.3 µM): < 3.16 nM
viability, T/C (second compound 0.000949 µM, first compound 0.00316 µM): 14%
viability, T/C (second compound 0.000949 µM, first compound 0.01 µM): 11.3%
viability, T/C (second compound 0.000949 µM, first compound 0.0316 µM): 7.59%
viability, T/C (second compound 0.000949 µM, first compound 0.1 µM): 8%
viability, T/C (second compound 0.000949 µM, first compound 0.316 µM): 8.62%
viability, T/C (second compound 0.000949 µM, first compound 1 µM): 8.31%
viability, T/C (second compound 0.003 µM, first compound 0.00316 µM): 9.34%
viability, T/C (second compound 0.003 µM, first compound 0.01 µM): 6.02%
viability, T/C (second compound 0.003 µM, first compound 0.0316 µM): 5.36%
viability, T/C (second compound 0.003 µM, first compound 0.1 µM): 5.95%
viability, T/C (second compound 0.003 µM, first compound 0.316 µM): 6.92%
viability, T/C (second compound 0.003 µM, first compound 1 µM): 5.35%
viability, T/C (second compound 0.00949 µM, first compound 0.00316 µM): 4.68%
viability, T/C (second compound 0.00949 µM, first compound 0.01 µM): 4.68%
viability, T/C (second compound 0.00949 µM, first compound 0.0316 µM): 4.36%
viability, T/C (second compound 0.00949 µM, first compound 0.1 µM): 4.25%
viability, T/C (second compound 0.00949 µM, first compound 0.316 µM): 4.08%
viability, T/C (second compound 0.00949 µM, first compound 1 µM): 3.96%
viability, T/C (second compound 0.03 µM, first compound 0.00316 µM): 3.4%
viability, T/C (second compound 0.03 µM, first compound 0.01 µM): 3.36%
viability, T/C (second compound 0.03 µM, first compound 0.0316 µM): 2.8%
viability, T/C (second compound 0.03 µM, first compound 0.1 µM): 2.79%
viability, T/C (second compound 0.03 µM, first compound 0.316 µM): 3.36%
viability, T/C (second compound 0.03 µM, first compound 1 µM): 3.36%
viability, T/C (second compound 0.0949 µM, first compound 0.00316 µM): 2.57%
viability, T/C (second compound 0.0949 µM, first compound 0.01 µM): 2.3%
viability, T/C (second compound 0.0949 µM, first compound 0.0316 µM): 3.16%
viability, T/C (second compound 0.0949 µM, first compound 0.1 µM): 2.37%
viability, T/C (second compound 0.0949 µM, first compound 0.316 µM): 2.22%
viability, T/C (second compound 0.0949 µM, first compound 1 µM): 3.4%
viability, T/C (second compound 0.3 µM, first compound 0.00316 µM): 2.23%
viability, T/C (second compound 0.3 µM, first compound 0.01 µM): 2.68%
viability, T/C (second compound 0.3 µM, first compound 0.0316 µM): 2.5%
viability, T/C (second compound 0.3 µM, first compound 0.1 µM): 2.49%
viability, T/C (second compound 0.3 µM, first compound 0.316 µM): 3.18%
viability, T/C (second compound 0.3 µM, first compound 1 µM): 2.66%
